Laboratory results reported in US20240025862A1, “SUBSTITUTED N-PHENYLURACILS AND SALTS THEREOF, AND USE THEREOF AS HERBICIDAL ACTIVE SUBSTANCES” (Bayer Aktiengesellschaft, priority 2020, published 2024).
Blank lines part the entries; values can stand above or below the compound they belong to.

What was measured:
Assay type in all cases: in vivo
[1] = test system: Brassica napus (BRSNW); test: Post-emergence crop plant compatibility, greenhouse pot test; details: for Post-emergence action against BRSNW (crop plant compatibility): vs untreated controls; for Post-emergence action at 5 g/ha against BRSNW in %: crop plant compatibility, observed effects on crop plant in comparison to untreated controls
In short: (§1)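 Greenhouse pot test; post-emergence foliar spray at one-leaf stage, WP or EC in water + 0.5% additive, 600 l/ha. Visual rating after ~3 wk, % relative to untreated (0–100%).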

[2] = test system: Glycine max (GLXMA); test: as above
In short: as §1

[3] = test system: Triticum aestivum (TRZAS); test: as above; details: 1.25 g/ha, vs untreated controls
In short: as §1

[4] = test system: Oryza sativa (ORYSA); test: Post-emergence crop plant compatibility, greenhouse pot test (also comparative test C); details: for Post-emergence action against ORYSA (crop plant compatibility): vs untreated controls
In short: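 Visual damage versus untreated plants (0% = like control, 100% = plants died) was scored about 3 weeks after a post-emergence spray in greenhouse pots. Treatment: one-leaf stage, WP or EC in water at 600 l/ha with 0.5% additive; a/b/c mark different dosages on the same crop.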

[5] = test system: Veronica persica (VERPE); test: Post-emergence herbicidal action, greenhouse pot test
In short: (§2)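 Activity was scored by eye about 3 weeks after treatment against untreated plants, where 100% means dead plants and 0% means no difference. Plants at the one-leaf stage received a foliar spray of WP or EC formulations in water plus 0.5% additive (600 l/ha, up to 20 g/ha). Plants were grown in sandy loam pots in a greenhouse for 2–3 weeks before spraying.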

[6] = test system: Abutilon theophrasti (ABUTH); test: as above; details: rated visually after about 3 weeks vs untreated controls, 100% = plants have died
In short: as §2

[7] = test system: Amaranthus retroflexus (AMARE); test: as above; details: rated visually after about 3 weeks vs untreated controls, 100% = plants have died
In short: as §2

[8] = test system: Viola tricolor (VIOTR); test: as above
In short: as §2

[9] = test system: Pharbitis purpurea (PHBPU); test: as above
In short: as §2

[10] = test system: Stellaria media (STEME); test: as above
In short: as §2

[11] = test system: Polygonum convolvulus (POLCO); test: as above
In short: as §2

[12] = test system: Matricaria inodora (MATIN); test: Post-emergence herbicidal action, greenhouse pot test (also comparative test C)
In short: (§3)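 Green parts of one-leaf-stage plants are sprayed at 600 l/ha with formulated compound plus 0.5% additive, then kept under optimum greenhouse conditions for about 3 weeks. Damage is scored visually, where 100% means dead plants and 0% means no difference from controls.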

[13] = test system: Echinochloa crus-galli (ECHCG); test: as above
In short: as §3

[14] = test system: Alopecurus myosuroides (ALOMY); test: as above; details: rated visually after about 3 weeks vs untreated controls, 100% = plants have died
In short: as §3

[15] = test system: Setaria viridis (SETVI); test: as above
In short: as §3

[16] = test system: Zea mays (ZEAMX); test: Post-emergence crop plant compatibility, greenhouse pot test; details: 1.25 g/ha, vs untreated controls
In short: as §1

[17] = test system: Avena fatua (AVEFA); test: Post-emergence herbicidal action, greenhouse pot test; details: rated visually after about 3 weeks vs untreated controls, 100% = plants have died
In short: as §2

[18] = test system: Lolium rigidum (LOLRI); test: as above; details: Lolium rigidum, 504 h, dosage 20 g/ha, read-out: Post-emergence action against LOLRI in %
In short: as §2

Post-emergence action against BRSNW (crop plant compatibility) ([1]; 1.25 g/ha): 20%
Post-emergence action against GLXMA in % ([2]; 1.25 g/ha): 0%
Post-emergence action against GLXMA in % ([2]; 5 g/ha): 10%
Post-emergence action against GLXMA in % ([2]; 20 g/ha): 20%
Post-emergence action against TRZAS (crop plant compatibility) [3]: 20%
Post-emergence action against ORYSA (crop plant compatibility) ([4]; 1.25 g/ha): 10%
Post-emergence action against ORYSA (crop plant compatibility) ([4]; 5 g/ha): 10%
Compound: COCCOCCOC(=O)C(C)Oc1ccccc1Sc1cc(-n2c(=O)cc(C(F)(F)F)n(C)c2=O)c(F)cc1Cl (racemic) [I.2-23]
Post-emergence action at 5 g/ha against BRSNW in % [1]: 20%
Post-emergence action against VERPE ([5]; 1.25 g/ha): 80%
Post-emergence action against VERPE ([5]; 5 g/ha): 100%
Post-emergence action against VERPE ([5]; 20 g/ha): 100%
Post-emergence action at 1.25 g/ha against ABUTH in % [6]: 100%
Post-emergence action at 5 g/ha against ABUTH in % ([6]; 5 g/ha): 100%
Post-emergence action at 20 g/ha against ABUTH in % ([6]; 20 g/ha): 100%
Post-emergence action at 1.25 g/ha against AMARE in % [7]: 80%
Post-emergence action at 5 g/ha against AMARE in % ([7]; 5 g/ha): 100%
Post-emergence action at 20 g/ha against AMARE in % ([7]; 20 g/ha): 100%
Post-emergence action against VIOTR ([8]; 5 g/ha): 100%
Post-emergence action against VIOTR ([8]; 20 g/ha): 100%
Post-emergence action against PHBPU in % ([9]; dosage 1.25 g/ha): 100%
Post-emergence action against PHBPU in % ([9]; dosage 5 g/ha): 100%
Post-emergence action against PHBPU in % ([9]; dosage 20 g/ha): 100%
Post-emergence action against STEME ([10]; 5 g/ha): 100%
Post-emergence action against STEME ([10]; 20 g/ha): 100%
Post-emergence action against POLCO in % ([11]; dosage 5 g/ha): 100%
Post-emergence action against POLCO in % ([11]; dosage 20 g/ha): 100%
Post-emergence action against MATIN in % ([12]; dosage 5 g/ha): 80%
Post-emergence action against MATIN in % ([12]; dosage 20 g/ha): 100%
Post-emergence action against ECHCG in % ([13]; dosage 5 g/ha): 100%
Post-emergence action against ECHCG in % ([13]; dosage 20 g/ha): 100%
Post-emergence action at 20 g/ha against ALOMY in % ([14]; 20 g/ha): 80%
Post-emergence action against SETVI ([15]; 20 g/ha): 100%
Post-emergence action against SETVI in % ([15]; dosage 5 g/ha): 100%

Post-emergence action against BRSNW (crop plant compatibility) ([1]; 1.25 g/ha): 20%
Post-emergence action against GLXMA in % ([2]; 1.25 g/ha): 10%
Post-emergence action against GLXMA in % ([2]; 5 g/ha): 10%
Post-emergence action against ZEAMX (crop plant compatibility) [16]: 10%
Post-emergence action against ORYSA (crop plant compatibility) ([4]; 1.25 g/ha): 10%
Post-emergence action against ORYSA (crop plant compatibility) ([4]; 5 g/ha): 10%
Post-emergence action against ORYSA in % ([4]; 20 g/ha, crop plant compatibility): 20%
Compound: CC(Oc1ccccc1Sc1cc(-n2c(=O)cc(C(F)(F)F)n(C)c2=O)c(F)cc1Cl)C(=O)OCCO (racemic) [I.2-58]
Post-emergence action against VERPE ([5]; 5 g/ha): 80%
Post-emergence action against VERPE ([5]; 20 g/ha): 100%
Post-emergence action at 1.25 g/ha against ABUTH in % [6]: 100%
Post-emergence action at 5 g/ha against ABUTH in % ([6]; 5 g/ha): 100%
Post-emergence action at 20 g/ha against ABUTH in % ([6]; 20 g/ha): 100%
Post-emergence action at 1.25 g/ha against AMARE in % [7]: 90%
Post-emergence action at 5 g/ha against AMARE in % ([7]; 5 g/ha): 100%
Post-emergence action at 20 g/ha against AMARE in % ([7]; 20 g/ha): 100%
Post-emergence action against VIOTR ([8]; 1.25 g/ha): 100%
Post-emergence action against VIOTR ([8]; 5 g/ha): 100%
Post-emergence action against VIOTR ([8]; 20 g/ha): 100%
Post-emergence action against PHBPU in % ([9]; dosage 5 g/ha): 80%
Post-emergence action against PHBPU in % ([9]; dosage 20 g/ha): 100%
Post-emergence action against STEME ([10]; 5 g/ha): 100%
Post-emergence action against STEME ([10]; 20 g/ha): 100%
Post-emergence action against POLCO in % ([11]; dosage 1.25 g/ha): 100%
Post-emergence action against POLCO in % ([11]; dosage 5 g/ha): 100%
Post-emergence action against POLCO in % ([11]; dosage 20 g/ha): 100%
Post-emergence action against MATIN in % ([12]; dosage 5 g/ha): 80%
Post-emergence action against MATIN in % ([12]; dosage 20 g/ha): 90%
Post-emergence action at 20 g/ha against ALOMY in % ([14]; 20 g/ha): 80%
Post-emergence action against SETVI ([15]; 20 g/ha): 100%
Post-emergence action against SETVI in % ([15]; dosage 1.25 g/ha): 100%
Post-emergence action against SETVI in % ([15]; dosage 5 g/ha): 100%

Post-emergence action against BRSNW (crop plant compatibility) ([1]; 20 g/ha): 20%
Compound: Cn1c(C(F)(F)F)cc(=O)n(-c2cc(Oc3ccccc3OCC(=O)OCC#N)c(Cl)cc2F)c1=O [I.7-176, Cyanomethyl (2-{2-chloro-4-fluoro-5-[3-methyl-2,6-dioxo-4-(trifluoromethyl)-3,6-dihydropyrimidin-1(2H)-yl]phenoxy}phenoxy)acetate]
Post-emergence action at 5 g/ha against BRSNW in % [1]: 20%
pest or weed control at 5 g/ha ([5]; Veronica persica, 504 h, 5 g/ha, read-out: Post-emergence action against VERPE): 100%
pest or weed control at 20 g/ha ([5]; Veronica persica, 504 h, 20 g/ha, read-out: Post-emergence action against VERPE): 100%
pest or weed control at 5 g/ha ([6]; Abutilon theophrasti, 504 h, 5 g/ha, read-out: Post-emergence action at 5 g/ha against ABUTH in %): 100%
pest or weed control at 20 g/ha ([6]; Abutilon theophrasti, 504 h, 20 g/ha, read-out: Post-emergence action at 20 g/ha against ABUTH in %): 100%
pest or weed control at 5 g/ha ([7]; Amaranthus retroflexus, 504 h, 5 g/ha, read-out: Post-emergence action at 5 g/ha against AMARE in %): 100%
pest or weed control at 20 g/ha ([7]; Amaranthus retroflexus, 504 h, 20 g/ha, read-out: Post-emergence action at 20 g/ha against AMARE in %): 100%
pest or weed control at 5 g/ha ([8]; Viola tricolor, 504 h, 5 g/ha, read-out: Post-emergence action against VIOTR): 100%
pest or weed control at 20 g/ha ([8]; Viola tricolor, 504 h, 20 g/ha, read-out: Post-emergence action against VIOTR): 100%
Post-emergence action at 5 g/ha against AVEFA in % ([17]; 5 g/ha): 80%
pest or weed control at 20 g/ha ([17]; Avena fatua, 504 h, 20 g/ha, read-out: Post-emergence action at 20 g/ha against AVEFA in %): 100%
pest or weed control at 20 g/ha [18]: 80%
pest or weed control at 5 g/ha ([9]; Ipomoea purpurea, 504 h, dosage 5 g/ha, read-out: Post-emergence action against PHBPU in %): 100%
pest or weed control at 20 g/ha ([9]; Ipomoea purpurea, 504 h, dosage 20 g/ha, read-out: Post-emergence action against PHBPU in %): 100%
pest or weed control at 5 g/ha ([11]; Fallopia convolvulus, 504 h, dosage 5 g/ha, read-out: Post-emergence action against POLCO in %): 100%
pest or weed control at 20 g/ha ([11]; Fallopia convolvulus, 504 h, dosage 20 g/ha, read-out: Post-emergence action against POLCO in %): 100%
pest or weed control at 5 g/ha ([12]; Tripleurospermum inodorum, 504 h, dosage 5 g/ha, read-out: Post-emergence action against MATIN in %): 90%
pest or weed control at 20 g/ha ([12]; Tripleurospermum inodorum, 504 h, dosage 20 g/ha, read-out: Post-emergence action against MATIN in %): 100%
pest or weed control at 5 g/ha ([13]; Echinochloa crus-galli, 504 h, dosage 5 g/ha, read-out: Post-emergence action against ECHCG in %): 100%
pest or weed control at 20 g/ha ([13]; Echinochloa crus-galli, 504 h, dosage 20 g/ha, read-out: Post-emergence action against ECHCG in %): 100%
pest or weed control at 5 g/ha ([14]; Alopecurus myosuroides, 504 h, 5 g/ha, read-out: Post-emergence action at 5 g/ha against ALOMY in %): 100%
pest or weed control at 20 g/ha ([14]; Alopecurus myosuroides, 504 h, 20 g/ha, read-out: Post-emergence action at 20 g/ha against ALOMY in %): 100%
pest or weed control at 20 g/ha ([15]; Setaria viridis, 504 h, 20 g/ha, read-out: Post-emergence action against SETVI): 100%
pest or weed control at 5 g/ha ([15]; Setaria viridis, 504 h, dosage 5 g/ha, read-out: Post-emergence action against SETVI in %): 100%
